Reference: paper PMC12406255, “Engineering Peptide Modulators for T‑Cell Migration by Structural Scaffold Matching” (Journal of Medicinal Chemistry, 2025)
Read-outs that look alike come from different tables or passages of the source. Positions of bridges follow the written chain, without caps; N, C: chain ends. Non-standard residues stand in square brackets, D forms with d. Residues, ends and D or L forms follow the SMILES beside them. No end group written: not given here. Nle = CCCC[C@H](N)C(=O)O

Legend:
[1] = test system: CD3+ lymphocytes; assay: cells; format: cell-based, human; conditions: for % Inhibition of cell migration compared to control, CD3+: normalized to untreated control, mean ± SEM of 4-6 experiments
Experimental: 1 Transwell-based migration assay to study lymphocyte transendothelial migration. (A) The general principle of the transwell migration assay is depicted. Endothelial cells (EC) are seeded in transwell inserts and are incubated for 2 days to form an EC monolayer. On the day before the assay, the ECs are cytokine-stimulated to induce the expression of adhesion molecules. In the migration assay, human peripheral blood mononuclear cells (PBMC) are placed into the donor compartment of the transwell setup. After 4 h of incubation time, the migrated cells are harvested from the receiver compartment, stained with fluorescent antibodies and counted using flow cytometry. (B) PBMCs were preincubated with S1P for 1.5 h and then transferred into the donor compartment on top of the EC monolayer. […] Data are shown as mean ± SD of 3 to 5 independent experiments.
(§1) Transwell migration assays were performed similarly as published previously. HMEC-1 cells were seeded at a density of 75,000 cells per well in transwell inserts. Three days after cell seeding, the medium was changed, and the cells were stimulated with 100 ng/mL TNF-α and 20 ng/mL IFN-γ for 16–18 h. On the day of the assay, cells were washed with migration medium (serum-free RPMI medium supplemented with 0.1% BSA) to remove residual cytokines and starved for at least 1 h at 37 °C in migration medium. PBMC were starved for at least 1.5 h in migration medium before addition to the EC. For S1P and lifitegrast-treated samples, the PBMC were preincubated for at least 1.5 h at 37 °C with the ligands before addition to the EC. Pepitem and other peptides were added onto the EC monolayer and preincubated for 15–30 min at 37 °C before the addition of the PBMC. 200,000 PBMC per well were added directly on top of the EC prestimulated with pepitem or other peptides to reach a final volume of 150 μL in the donor compartments. The receiver compartments of the wells were filled with 600 μL RPMI with 20% FBS. After 4 h of migration at 37 °C, the receiver compartment with the migrated cells was collected. The migrated cells were stained with the indicated antibodies: CD3-APC (clone: OKT3, lot: B400127), CD4-PE (clone: OKT4. lot: B379180), CD8-FITC (clone: HIT8a, lot: B370193) from Biolegend and CD3-VioGreen (clone: REA613, lot: 5240502518), CD45RO-FITC (clone: REA611, lot: 5240502519), CD4-PerCP-Vio700 (clone: REA623, lot: 5240506702), CXCR3 PE-Vio615 (clone: REA232, lot: 5240506722), CD196-APC (clone: REA190, lot: 5240506717), CD8-APC-Vio770 (clone: REA734, lot: 5240303993) and CD45RO-PEVio616 (clone: REA611, lot: 5231102514) from Miltenyi Biotec (Bergisch Gladbach, Germany) and counted using precision counting beads (Biolegend) on a CytoflexS flow cytometer (BeckmanCoulter). Data was analyzed using CytExpert (Version 2.4). T cells were gated as CD3^+ cells, T cell subsets were gated as CD4^+ (CD3^+, CD4^+), CD8^+ (CD3^+, CD8^+), memory CD4^+ (CD3^+, CD4^+, CD45RO^+), memory CD8^+ (CD3^+, CD8^+, CD45RO^+) and Th1 cells (CD3^+, CD4^+, CXCR3^+, CCR6^–).
(§2) Data were analyzed using GraphPad Prism software. EC50 values were calculated by three-parameter nonlinear regression analysis. For this, the data points were normalized to the number of migrated cells in untreated (buffer) control samples (100%), and the regression was fitted with the top constraint to 100 and the slope fixed to 1. Statistical significance is indicated in graphs as n.s. not significant, * p < 0.05; ** p < 0.01; *** p < 0.001. The statistical tests used are indicated in the respective figure captions.

[2] = test system: memory CD8+ cells (CD3+, CD8+, CD45RO+); format: cell-based, human; conditions: normalized to untreated control, mean ± SEM of 4-6 experiments
Experimental: as §1, §2

[3] = test system: CD8+ lymphocytes (CD3+, CD8+); format: cell-based, human; conditions: normalized to untreated control, mean ± SEM of 4-6 experiments
Experimental: as §1, §2

[4] = test system: memory CD4+ cells (CD3+, CD4+, CD45RO+); format: cell-based, human; conditions: normalized to untreated control, mean ± SEM of 4-6 experiments
Experimental: as §1, §2

[5] = test system: CD4+ lymphocytes (CD3+, CD4+); format: cell-based, human; conditions: normalized to untreated control, mean ± SEM of 4-6 experiments
Experimental: as §1, §2

[6] = Serum stability assay; format: in vitro ADME; conditions: human serum of healthy donors, lipids removed by centrifugation, 37 °C, peptide 30-60 μM from 10-fold stock in PBS, followed over 48 h, urea/TFA quench, analytical RP-HPLC peak area vs time 0, one-phase decay fit, mean ± SD, n = 2 (pepitem n = 5); for half-life: read-out: Serum t 1/2 (converted)
Experimental: Stability of peptides in human serum was measured similarly to that previously described. In short, fresh blood from healthy donors was collected in serum collection tubes (Clot Activator Tube, Becton Dickinson, Plymouth, United Kingdom, […]) and incubated at 4 °C for 2 h to allow blood clotting. The serum was separated by centrifugation at 1000 × g for 10 min. To remove lipids from the serum, an additional centrifugation step was performed at 15,000 × g for 15 min at 4 °C, after which the serum was used for the stability assays. For this, the serum was prewarmed for 10 min at 37 °C before the addition of the test compounds. Peptides were prepared at a 10-fold concentration in PBS and diluted to a final concentration between 60 and 30 μM with the serum. The serum-peptide reaction mix was incubated at 37 °C, and 40 μL aliquots were taken at the indicated time points. To stop the reaction, samples were mixed with 40 μL of 6 M urea for 10 min on ice, followed by precipitation of serum proteins by the addition of 40 μL of 20% TFA and incubation for at least 10 min on ice. The precipitate was pelleted at 15,000 × g for 15 min, and 90 μL of the supernatant was freeze-dried. The dry material was resuspended in HPLC solvent A (0.1% TFA in ddH2O). Peptide quantification was performed using analytical HPLC. The remaining peptide relative to the starting point (time point 0) was calculated by peak integration to determine the area under the peak at the designated time points and further calculated in comparison to time point 0 min, which was set as 100%. To calculate the half-life of the peptides in human serum, data points were fitted with a one-phase decay equation.

[7] = Homo sapiens, Lymphocyte, PBMC preincubated with ligand for 1.5 h, then added onto EC monolayer, 4 h migration, mean ± SD, 3 or more experiments, read-out: EC50, inhibition of CD3+ cell migration

Row | Compound | EC50 [1, 7] [nM] | % Inhibition of cell migration compared to control, Memory CD8+ ([2]; 0.1 μM) [%] | % Inhibition of cell migration compared to control, Memory CD8+ ([2]; 1 μM) | % Inhibition of cell migration compared to control, CD8+ ([3]; 0.1 μM) [%] | % Inhibition of cell migration compared to control, CD8+ ([3]; 1 μM) | % Inhibition of cell migration compared to control, Memory CD4+ ([4]; 0.1 μM) | % Inhibition of cell migration compared to control, Memory CD4+ ([4]; 1 μM) | % Inhibition of cell migration compared to control, CD4+ ([5]; 0.1 μM) | % Inhibition of cell migration compared to control, CD4+ ([5]; 1 μM) | half-life [6] [h] | % Inhibition of cell migration compared to control, CD3+ ([1]; 0.1 μM) | % Inhibition of cell migration compared to control, CD3+ ([1]; 1 μM) | effects on T-lymphocyte migration (in words) ([1]; two concentrations (0.1 and 1 μM), equal to untreated control) | Serum t 1/2 [6] [h] | EC50 ([1]; 4 h) [nM]
1 | CCCCCCCCCCCCC/C=C/[C@@H](O)[C@@H](N)COP(=O)(O)O [Sphingosine-1-phosphate, reference compound] | 54.6 ± 49.1 |  |  |  |  |  |  |  |  |  |  |  |  |  | 
2 | CCCC[C@@H]1NC(=O)[C@H](C(C)C)NC(=O)[C@H](CCCCN)NC(=O)[C@@H](NC(=O)[C@H](CCC(N)=O)NC(=O)[C@H](CCC(=O)O)NC(C)=O)CSSC[C@@H](C(=O)N[C@@H](CCC(=O)O)C(=O)N[C@@H](CCCCN)C(N)=O)NC(=O)[C@H](CC(N)=O)NC(=O)[C@H](CC(=O)O)NC(=O)[C@H](CC(C)C)NC(=O)[C@@H]2CSSC[C@H](NC1=O)C(=O)N[C@@H](Cc1ccc(O)cc1)C(=O)N[C@@H](C)C(=O)N[C@@H](CCC(N)=O)C(=O)N[C@@H](CCCNC(=N)N)C(=O)N[C@@H](Cc1c[nH]cn1)C(=O)N[C@@H](CO)C(=O)N[C@@H](CO)C(=O)N1CCC[C@H]1C(=O)N[C@@H](CCC(=O)O)C(=O)N[C@@H](CC(C)C)C(=O)N[C@@H](CC(C)C)C(=O)N[C@@H](CCCNC(=N)N)C(=O)N[C@@H](CCCNC(=N)N)C(=O)N2 [VhTI variant, reference compound] (Ac-EQCKV[Nle]CYAQRHSSPELLRRCLDNCEK-NH2; disulfide 3-25, 7-21) |  | 4.7 ± 7.4 | –11.6 ± 7.2% | 1.6 ± 8.5 | –2.8 ± 15.8% | –3.5 ± 2.4% | –11.6 ± 13.2% | –7.8 ± 9.4% | –6.7 ± 7.0% | 15.4 ± 12.9 | –3.9 ± 7.0% | –5.2 ± 10.7% | no effects |  | 
3 | CCCC[C@@H]1NC(=O)[C@H](C(C)C)NC(=O)[C@H](CCCCN)NC(=O)[C@@H](NC(=O)[C@H](CCC(N)=O)NC(=O)[C@H](CCC(=O)O)NC(C)=O)CSSC[C@@H](C(=O)N[C@@H](CCC(=O)O)C(=O)N[C@@H](CCCCN)C(N)=O)NC(=O)[C@H](CC(N)=O)NC(=O)[C@H](CC(=O)O)NC(=O)[C@H](CC(C)C)NC(=O)[C@@H]2CSSC[C@H](NC1=O)C(=O)N[C@@H](Cc1ccc(O)cc1)C(=O)N[C@@H](C)C(=O)N[C@@H](CCC(N)=O)C(=O)NCC(=O)N[C@@H](C)C(=O)N[C@@H](CCC(=O)O)C(=O)N[C@@H](CC(C)C)C(=O)N[C@@H](CO)C(=O)N1CCC[C@H]1C(=O)N[C@@H](CCC(=O)O)C(=O)N[C@@H](CC(C)C)C(=O)N[C@@H](CC(C)C)C(=O)N[C@@H](CCCNC(=N)N)C(=O)N[C@@H](CCCNC(=N)N)C(=O)N2 [VhTI-pep 1] (Ac-EQCKV[Nle]CYAQGAELSPELLRRCLDNCEK-NH2; disulfide 3-26, 7-22) |  | 21.2 ± 3.1 | 29.6 ± 6.7% | 34.6 ± 8.0 | 38.4 ± 2.4% | 15.1 ± 14.2% | 39.5 ± 11.6% | 23.5 ± 9.7% | 30.3 ± 14.7% | > 48 | 25.6 ± 6.4% | 33.4 ± 8.5% |  |  | 
4 | CS(=O)(=O)c1cccc(C[C@H](NC(=O)c2c(Cl)cc3c(c2Cl)CCN(C(=O)c2ccc4ccoc4c2)C3)C(=O)O)c1 [lifitegrast, reference compound] | 2.2 ± 3.6 |  |  |  |  |  |  |  |  |  |  |  |  |  | 
5 | SVTEQGAELSNEER [Pepitem, reference compound] |  |  |  |  |  |  |  |  |  | ~3 |  |  |  | 3.1 ± 0.5 | 6 ± 6.4
